Data published in article PMC8924211 (Nature Communications, 2022).
Changes are numbered by the printed parent chain.

Experiments:
Assay in all cases: Calcium assay, HEK293/Gα16 cells, GAL2R mutants
Format in all cases: cell-based
GAL2R mutants [1] = target: T1, GAL2R mutants (Homo sapiens, UniProt O43603, A170S); settings: GAL2R A170ECL2S
T1 construct: expressed in transfected cells; host or cells: HEK293
T1 sequence (O43603 1-387 A170S): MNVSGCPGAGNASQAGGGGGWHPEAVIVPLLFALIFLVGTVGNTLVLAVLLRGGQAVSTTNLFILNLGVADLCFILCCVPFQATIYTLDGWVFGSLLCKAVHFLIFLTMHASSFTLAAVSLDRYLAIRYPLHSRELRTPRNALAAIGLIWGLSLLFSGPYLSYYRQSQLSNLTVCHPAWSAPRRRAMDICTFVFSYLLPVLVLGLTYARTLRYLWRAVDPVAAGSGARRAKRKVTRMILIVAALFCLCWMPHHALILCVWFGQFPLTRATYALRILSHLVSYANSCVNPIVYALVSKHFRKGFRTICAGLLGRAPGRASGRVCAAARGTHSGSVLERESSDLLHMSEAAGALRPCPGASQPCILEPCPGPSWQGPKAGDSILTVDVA

GAL2R mutants [2] = target: T2, GAL2R mutants (Homo sapiens, UniProt O43603, L172A); settings: GAL2R L172ECL2A
T2 construct: expressed in transfected cells; host or cells: HEK293
T2 sequence (O43603 1-387 L172A): T1 sequence (O43603 1-387 A170S) with S170A, L172A

GAL2R mutants [3] = target: T3, GAL2R mutants (Homo sapiens, UniProt O43603, Q82A); settings: GAL2R Q822.61A
T3 construct: expressed in transfected cells; host or cells: HEK293
T3 sequence (O43603 1-387 Q82A): T1 sequence (O43603 1-387 A170S) with Q82A, S170A

GAL2R mutants [4] = target: T4, GAL2R mutants (Homo sapiens, UniProt O43603, L266A); settings: GAL2R L266ECL3A
T4 construct: expressed in transfected cells; host or cells: HEK293
T4 sequence (O43603 1-387 L266A): T1 sequence (O43603 1-387 A170S) with S170A, L266A

GAL2R mutants [5] = target: T5, GAL2R mutants (Homo sapiens, UniProt O43603, F264A); settings: GAL2R F264ECL3A
T5 construct: expressed in transfected cells; host or cells: HEK293
T5 sequence (O43603 1-387 F264A): T1 sequence (O43603 1-387 A170S) with S170A, F264A

[6] = response of 100 μM spexin compared to WT, mean ± S.E.M.

Emax (GAL2R mutants [1]; [6]): 17.66±5.3%
EC50 (GAL2R mutants [1]; spexin, replicate 1): 0.0954 µM
Emax (GAL2R mutants [1]; spexin, replicate 1): 11.3367%
EC50 (GAL2R mutants [1]; spexin, replicate 2): 0.1514 µM
Emax (GAL2R mutants [1]; spexin, replicate 2): 13.424%
EC50 (GAL2R mutants [1]; spexin, replicate 3): 0.1506 µM
Emax (GAL2R mutants [1]; spexin, replicate 3): 28.2269%
Emax (GAL2R mutants [2]; [6]): 33.56±1.2%
EC50 (GAL2R mutants [2]; spexin, replicate 1): 3.125 µM
Emax (GAL2R mutants [2]; spexin, replicate 1): 31.8616%
EC50 (GAL2R mutants [2]; spexin, replicate 2): 10.79 µM
Emax (GAL2R mutants [2]; spexin, replicate 2): 33.0538%
EC50 (GAL2R mutants [2]; spexin, replicate 3): 12.08 µM
Emax (GAL2R mutants [2]; spexin, replicate 3): 35.752%
Emax (GAL2R mutants [3]; spexin, replicate 1): no response
Emax (GAL2R mutants [3]; spexin, replicate 2): no response
Emax (GAL2R mutants [3]; spexin, replicate 3): no response
Emax (GAL2R mutants [4]; [6]): 103.14±6.2%
EC50 (GAL2R mutants [4]; spexin, replicate 1): 25.14 µM
Emax (GAL2R mutants [4]; spexin, replicate 1): 98.5714%
EC50 (GAL2R mutants [4]; spexin, replicate 2): 15.28 µM
Emax (GAL2R mutants [4]; spexin, replicate 2): 95.5224%
EC50 (GAL2R mutants [4]; spexin, replicate 3): 11.99 µM
Emax (GAL2R mutants [4]; spexin, replicate 3): 115.328%
Emax (GAL2R mutants [5]; [6]): 40.26±1.3%
Emax (GAL2R mutants [5]; spexin, replicate 1): 42.8699%
Emax (GAL2R mutants [5]; spexin, replicate 2): 39.5775%
Emax (GAL2R mutants [5]; spexin, replicate 3): 38.3476%
Substance: spexin
Emax (GAL2R mutants [3]; response of 100 μM spexin compared to WT): NR (NR, no response, refers to response < 10% compared to WT receptor (spexin at 100 μM))
